Patent US20150010928A1, “MEANS AND METHODS FOR ASSESSING AN ENDOCRINE DISEASE OR DISORDER” (priority 2012, published 2015)
Marks after values point to notes of the source that are not given here.

System: female rats
Assay: Plasma metabolite profiling (GC-MS, LC-MS, SPE-LC-MS) in female rats dosed once daily over 28 days (OECD 407)
Type: in vivo, rat
Conditions: female rats, plasma, low dose
Method: Each dose group in the studies consisted of five rats per sex. Additional groups of each 5 male and female animals served as controls. […] All animals of the animal population were kept under the same constant temperature (20-24±3° C.) and the same constant humidity (30-70%). The animals of the animal population were fed ad libitum. The food to be used was essentially free of chemical or microbial contaminants. Drinking water was also offered ad libitum. Accordingly, the water was free of chemical and microbial contaminants as laid down in the European Drinking Water Directive 98/83/EG. The illumination period was 12 hours light followed by 12 hours darkness (12 hours light, from 6:00 to 18:00, and 12 hours darkness, from 18:00 to 6:00). […] The test substances (compounds) in the Tables 1 to 17 below were dosed and administered as described in the Table 18.
In the morning of day 7, 14, and 28, blood was taken from the retroorbital venous plexus from fasted anaesthetized animals. From each animal, 1 ml of blood was collected with EDTA as anticoagulant. The samples were centrifuged for generation of plasma. All plasma samples were covered with a N2 atmosphere and then stored at −80° C. until analysis.
For mass spectrometry-based metabolite profiling analyses plasma samples were extracted and a polar and a non-polar (lipid) fraction was obtained. For GC-MS analysis, the non-polar fraction was treated with methanol under acidic conditions to yield the fatty acid methyl esters. Both fractions were further derivatised with O-methyl-hydroxyamine hydrochloride and pyridine to convert Oxogroups to O-methyloximes and subsequently with a silylating agent before analysis. In LC-MS analysis, both fractions were reconstituted in appropriate solvent mixtures. HPLC was performed by gradient elution on reversed phase separation columns. Mass spectrometric detection which allows target and high sensitivity MRM (Multiple Reaction Monitoring) profiling in parallel to a full screen analysis was applied as described in WO2003073464.
Steroids and their metabolites were measured by online SPE-LC-MS (Solid phase extraction-LC-MS).
Following comprehensive analytical validation steps, the data for each analyte were normalized against data from pool samples. These samples were run in parallel through the whole process to account for process variability. The significance of treatment group values specific for sex, treatmentduration and metabolite was determined by comparing means of the treated groups to the means of the respective untreated control groups using WELCH-test and quantified with treatment ratios versus control and p-values.
The identification of the most important biomarkers per toxicity pattern was done by a ranking of the analytes in the tables below. Therefore the metabolic changes in reference treatments of a given pattern (shown in the table) were compared with changes of the same metabolite in other unrelated treatments. […] The maximum absolute value of the respective TVALUE was taken to indicate the most important metabolite for the pattern.

SMILES: O=c1c(-c2ccc(O)cc2)coc2cc(O)cc(O)c12 [Genistein]
- 3-O-Methylsphingosine (d18:1), ratio versus control (day 7): 0.25 *
- 5-O-Methylsphingosine (d18:1), ratio versus control (day 7): 0.27 *
- 16-Methylheptadecanoic acid, ratio versus control (day 7): 0.64 *
- 17-Methyloctadecanoic acid, ratio versus control (day 7): 0.7 *
- Arachidonic acid (C20:cis[5,8,11,14]4), ratio versus control (day 7): 0.59 *
- Behenic acid (C22:0), ratio versus control (day 7): 0.45 *
- Cholesterol, ratio versus control (day 7): 0.55 *
- Choline plasmalogen No 03, ratio versus control (day 7): 0.74 *
- Docosahexaenoic acid (C22:cis[4,7,10,13,16,19]6), ratio versus control (day 7): 0.52 *
- Galactose, lipid fraction, ratio versus control (day 7): 0.51 *
- Lignoceric acid (C24:0), ratio versus control (day 7): 0.45 *
- Lysophosphatidylcholine (C17:0), ratio versus control (day 7): 0.8 *
- Malate, ratio versus control (day 7): 0.98 *
- Nervonic acid (C24:cis[15]1), ratio versus control (day 7): 0.45 *
- Sphingomyelin (d18:2, C16:0), ratio versus control (day 7): 0.55 *
- Stearic acid (C18:0), ratio versus control (day 7): 0.63 *
- Tricosanoic acid (C23:0), ratio versus control (day 7): 0.32 *
- Uric acid, ratio versus control (day 7): 0.73 *
- alpha-Tocopherol, ratio versus control (day 7): 0.5 *
- erythro-Sphingosine (d18:1), ratio versus control (day 7): 0.29 *
- myo-Inositol, lipid fraction, ratio versus control (day 7): 0.62 *
- myo-Inositol-2-phosphate, lipid fraction, ratio versus control (day 7): 0.48 *
- threo-Sphingosine (d18:1), ratio versus control (day 7): 0.33 *
- 3-O-Methylsphingosine (d18:1), ratio versus control (day 14): 0.55 *
- 5-O-Methylsphingosine (d18:1), ratio versus control (day 14): 0.58 *
- 16-Methylheptadecanoic acid, ratio versus control (day 14): 0.72 *
- 17-Methyloctadecanoic acid, ratio versus control (day 14): 0.73 *
- Arachidonic acid (C20:cis[5,8,11,14]4), ratio versus control (day 14): 0.66 *
- Behenic acid (C22:0), ratio versus control (day 14): 0.52 *
- Cholesterol, ratio versus control (day 14): 0.66 *
- Choline plasmalogen No 03, ratio versus control (day 14): 0.8 *
- Docosahexaenoic acid (C22:cis[4,7,10,13,16,19]6), ratio versus control (day 14): 0.71 *
- Galactose, lipid fraction, ratio versus control (day 14): 0.66 *
- Lignoceric acid (C24:0), ratio versus control (day 14): 0.53 *
- Lysophosphatidylcholine (C17:0), ratio versus control (day 14): 0.9 *
- Malate, ratio versus control (day 14): 0.75 *
- Nervonic acid (C24:cis[15]1), ratio versus control (day 14): 0.7 *
- Sphingomyelin (d18:2, C16:0), ratio versus control (day 14): 0.74 *
- Stearic acid (C18:0), ratio versus control (day 14): 0.83 *
- Tricosanoic acid (C23:0), ratio versus control (day 14): 0.65 *
- Uric acid, ratio versus control (day 14): 0.72 *
- alpha-Tocopherol, ratio versus control (day 14): 0.65 *
- erythro-Sphingosine (d18:1), ratio versus control (day 14): 0.61 *
- myo-Inositol, lipid fraction, ratio versus control (day 14): 0.76 *
- myo-Inositol-2-phosphate, lipid fraction, ratio versus control (day 14): 0.66^
- threo-Sphingosine (d18:1), ratio versus control (day 14): 0.65 *
- 3-O-Methylsphingosine (d18:1), ratio versus control (day 28): 0.44 *
- 5-O-Methylsphingosine (d18:1), ratio versus control (day 28): 0.47 *
- 16-Methylheptadecanoic acid, ratio versus control (day 28): 0.69 *
- 17-Methyloctadecanoic acid, ratio versus control (day 28): 0.86 *
- Arachidonic acid (C20:cis[5,8,11,14]4), ratio versus control (day 28): 0.46 *
- Behenic acid (C22:0), ratio versus control (day 28): 0.57 *
- Cholesterol, ratio versus control (day 28): 0.43 *
- Choline plasmalogen No 03, ratio versus control (day 28): 0.57 *
- Docosahexaenoic acid (C22:cis[4,7,10,13,16,19]6), ratio versus control (day 28): 0.43 *
- Galactose, lipid fraction, ratio versus control (day 28): 0.62 *
- Lignoceric acid (C24:0), ratio versus control (day 28): 0.44 *
- Lysophosphatidylcholine (C17:0), ratio versus control (day 28): 0.81 *
- Malate, ratio versus control (day 28): 0.66 *
- Nervonic acid (C24:cis[15]1), ratio versus control (day 28): 0.43 *
- Sphingomyelin (d18:2, C16:0), ratio versus control (day 28): 0.62 *
- Stearic acid (C18:0), ratio versus control (day 28): 0.66 *
- Tricosanoic acid (C23:0), ratio versus control (day 28): 0.42 *
- Uric acid, ratio versus control (day 28): 0.57 *
- alpha-Tocopherol, ratio versus control (day 28): 0.46 *
- erythro-Sphingosine (d18:1), ratio versus control (day 28): 0.51 *
- myo-Inositol, lipid fraction, ratio versus control (day 28): 0.75 *
- myo-Inositol-2-phosphate, lipid fraction, ratio versus control (day 28): 0.54 *
- threo-Sphingosine (d18:1), ratio versus control (day 28): 0.57 *
